Measured values published in ChEMBL document CHEMBL1201862, “PubChem BioAssay data set” (2004).
The source made the active and inactive calls.

Columns and labels:
Protein skinhead-1 = molecular target: T1, Protein skinhead-1 (Caenorhabditis elegans, UniProt P34707); type: functional
T1 sequence (P34707 whole entry): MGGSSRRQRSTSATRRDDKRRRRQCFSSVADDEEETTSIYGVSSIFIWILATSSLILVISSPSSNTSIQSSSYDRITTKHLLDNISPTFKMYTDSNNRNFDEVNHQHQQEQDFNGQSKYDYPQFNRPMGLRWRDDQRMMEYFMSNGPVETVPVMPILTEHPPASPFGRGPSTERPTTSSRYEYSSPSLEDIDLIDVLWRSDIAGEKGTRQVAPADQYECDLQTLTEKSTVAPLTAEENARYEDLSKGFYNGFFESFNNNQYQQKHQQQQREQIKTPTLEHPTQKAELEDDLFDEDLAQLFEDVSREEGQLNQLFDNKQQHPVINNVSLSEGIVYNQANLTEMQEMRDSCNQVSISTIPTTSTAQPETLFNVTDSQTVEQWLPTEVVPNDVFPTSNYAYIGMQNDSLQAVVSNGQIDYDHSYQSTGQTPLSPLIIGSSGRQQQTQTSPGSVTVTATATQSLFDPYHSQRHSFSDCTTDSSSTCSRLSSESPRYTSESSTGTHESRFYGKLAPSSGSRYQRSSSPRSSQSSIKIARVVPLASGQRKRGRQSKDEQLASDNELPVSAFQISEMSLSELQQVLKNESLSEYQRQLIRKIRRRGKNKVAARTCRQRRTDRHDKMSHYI

[1] = molecular target: T2, Rac GTPase-activating protein 1 (Homo sapiens, UniProt Q9H0H5); assay: MgcRacGAP GTPase-activating activity inhibitors, confirmation, biochemical, ADP Hunter fluorescence, primary and confirmatory (AID 624330); type: functional
T2 sequence (Q9H0H5 whole entry): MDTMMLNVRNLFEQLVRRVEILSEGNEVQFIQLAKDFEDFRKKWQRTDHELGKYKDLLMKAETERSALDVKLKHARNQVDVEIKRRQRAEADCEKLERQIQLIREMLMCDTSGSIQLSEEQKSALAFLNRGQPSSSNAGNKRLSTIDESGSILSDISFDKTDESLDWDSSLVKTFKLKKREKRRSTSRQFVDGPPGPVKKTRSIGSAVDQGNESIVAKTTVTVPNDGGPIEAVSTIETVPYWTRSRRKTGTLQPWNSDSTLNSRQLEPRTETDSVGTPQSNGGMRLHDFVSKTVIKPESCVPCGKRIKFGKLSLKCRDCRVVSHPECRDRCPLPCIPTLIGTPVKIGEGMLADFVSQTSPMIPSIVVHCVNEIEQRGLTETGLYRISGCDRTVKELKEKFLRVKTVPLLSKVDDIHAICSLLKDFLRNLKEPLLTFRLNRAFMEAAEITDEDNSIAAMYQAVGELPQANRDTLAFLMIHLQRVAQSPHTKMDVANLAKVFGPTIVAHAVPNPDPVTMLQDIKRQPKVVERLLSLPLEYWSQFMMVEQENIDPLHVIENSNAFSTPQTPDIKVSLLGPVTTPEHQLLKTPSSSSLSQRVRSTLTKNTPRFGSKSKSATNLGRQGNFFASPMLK

[2] = molecular target: T3, Bifunctional protein GlmU (Mycobacterium tuberculosis, UniProt P9WMN3); assay: Inhibitors of Mycobacterial Glucosamine-1-phosphate acetyl transferase (GlmU). Secondary screen.; design: species or system Mycobacterium tuberculosis H37Rv
T3 sequence (P9WMN3 whole entry): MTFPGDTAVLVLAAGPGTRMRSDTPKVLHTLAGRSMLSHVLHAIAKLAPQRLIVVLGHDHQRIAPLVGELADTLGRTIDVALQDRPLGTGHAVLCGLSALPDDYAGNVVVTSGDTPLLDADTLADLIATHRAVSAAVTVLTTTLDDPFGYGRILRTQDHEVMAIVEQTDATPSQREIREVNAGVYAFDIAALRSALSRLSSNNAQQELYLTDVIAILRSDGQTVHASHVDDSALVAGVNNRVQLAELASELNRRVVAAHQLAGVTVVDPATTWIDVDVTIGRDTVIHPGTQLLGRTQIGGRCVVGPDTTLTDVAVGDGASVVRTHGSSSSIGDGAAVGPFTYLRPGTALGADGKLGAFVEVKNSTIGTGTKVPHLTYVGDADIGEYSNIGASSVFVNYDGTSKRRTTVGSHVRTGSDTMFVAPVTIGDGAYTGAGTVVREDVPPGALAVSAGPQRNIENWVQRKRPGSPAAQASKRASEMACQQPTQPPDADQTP

Troponin, cardiac muscle = Troponin, cardiac muscle (Homo sapiens, UniProt P19429+P45379+P63316); assay: Fluorescence-based biochemical high throughput dose response assay for activators of the calcium sensitivity of cardiac Regulated Thin Filaments (RTF). [Related pubchem assays (depositor defined):AID493008, AID493018, AID504382, AID504383]; type: protein-complex assay
[3] = molecular target: E3 ubiquitin-protein ligase Mdm2 (Homo sapiens, UniProt Q00987); assay: enhancers of MDM2-luciferase reporter signal, concentration-effect titration, project on inhibitors of MDM2 ubiquitin ligase, cellular assay, luminescent readout, 384-well plate format (AID 1394); type: functional;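 further: MDM2 E3 inhibitors raise luminescence so EC50 is for signal enhancement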
Chain of E3 ubiquitin-protein ligase Mdm2 (Q00987 whole entry): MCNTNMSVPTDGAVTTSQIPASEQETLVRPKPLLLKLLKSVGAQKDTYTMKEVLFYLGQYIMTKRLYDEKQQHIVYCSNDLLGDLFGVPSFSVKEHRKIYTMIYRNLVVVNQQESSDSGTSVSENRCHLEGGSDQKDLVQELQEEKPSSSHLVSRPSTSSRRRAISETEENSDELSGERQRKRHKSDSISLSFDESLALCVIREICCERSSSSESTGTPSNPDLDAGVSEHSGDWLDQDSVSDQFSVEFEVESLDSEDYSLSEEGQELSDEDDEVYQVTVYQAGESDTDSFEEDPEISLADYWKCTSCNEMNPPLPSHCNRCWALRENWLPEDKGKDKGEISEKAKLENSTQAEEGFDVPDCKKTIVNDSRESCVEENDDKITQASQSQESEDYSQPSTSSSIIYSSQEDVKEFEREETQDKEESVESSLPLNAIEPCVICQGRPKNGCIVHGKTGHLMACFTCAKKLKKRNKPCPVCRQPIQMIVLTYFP

[4] = molecular target: T4, Delta-type opioid receptor (Homo sapiens, UniProt P41143); assay: HTS Image-Based Screen for Agonists of the DOR Receptor. [Related pubchem assays (depositor defined):AID1777, AID1786, AID2133]; type: functional
T4 sequence (P41143 whole entry): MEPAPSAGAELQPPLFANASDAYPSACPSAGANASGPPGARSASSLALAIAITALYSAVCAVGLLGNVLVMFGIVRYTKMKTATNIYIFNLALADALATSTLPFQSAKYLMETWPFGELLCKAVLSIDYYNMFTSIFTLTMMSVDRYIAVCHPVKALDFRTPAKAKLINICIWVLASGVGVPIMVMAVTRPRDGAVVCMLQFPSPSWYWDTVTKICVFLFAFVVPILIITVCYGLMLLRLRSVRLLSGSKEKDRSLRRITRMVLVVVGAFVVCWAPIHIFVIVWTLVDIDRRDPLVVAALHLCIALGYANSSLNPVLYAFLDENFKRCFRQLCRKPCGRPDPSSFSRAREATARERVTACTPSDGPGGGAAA

Mu-type opioid receptor = Mu-type opioid receptor (Homo sapiens, UniProt P35372); assay: HTS Image-Based Screen for Agonists of the MOR Receptor. [Related pubchem assays (depositor defined):AID1777, AID1785, AID1786, AID2133]; type: functional;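 further: imaging of beta-arrestin GFP recruitment into spots after receptor activation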
Chain of Mu-type opioid receptor (P35372 whole entry): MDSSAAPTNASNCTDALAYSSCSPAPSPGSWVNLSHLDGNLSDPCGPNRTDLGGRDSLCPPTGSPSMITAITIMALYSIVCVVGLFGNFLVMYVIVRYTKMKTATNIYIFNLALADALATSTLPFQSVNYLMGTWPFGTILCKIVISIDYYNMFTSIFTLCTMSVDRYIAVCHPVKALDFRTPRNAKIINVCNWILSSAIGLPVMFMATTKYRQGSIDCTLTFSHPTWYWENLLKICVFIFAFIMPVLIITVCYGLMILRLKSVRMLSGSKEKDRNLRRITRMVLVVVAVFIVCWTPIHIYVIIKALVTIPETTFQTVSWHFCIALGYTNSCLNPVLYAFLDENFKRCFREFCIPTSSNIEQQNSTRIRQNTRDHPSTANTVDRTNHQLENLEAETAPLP

Beta-galactosidase = Beta-galactosidase (Escherichia coli, UniProt Q8VNN2); type: functional
Chain of Beta-galactosidase (Q8VNN2 whole entry): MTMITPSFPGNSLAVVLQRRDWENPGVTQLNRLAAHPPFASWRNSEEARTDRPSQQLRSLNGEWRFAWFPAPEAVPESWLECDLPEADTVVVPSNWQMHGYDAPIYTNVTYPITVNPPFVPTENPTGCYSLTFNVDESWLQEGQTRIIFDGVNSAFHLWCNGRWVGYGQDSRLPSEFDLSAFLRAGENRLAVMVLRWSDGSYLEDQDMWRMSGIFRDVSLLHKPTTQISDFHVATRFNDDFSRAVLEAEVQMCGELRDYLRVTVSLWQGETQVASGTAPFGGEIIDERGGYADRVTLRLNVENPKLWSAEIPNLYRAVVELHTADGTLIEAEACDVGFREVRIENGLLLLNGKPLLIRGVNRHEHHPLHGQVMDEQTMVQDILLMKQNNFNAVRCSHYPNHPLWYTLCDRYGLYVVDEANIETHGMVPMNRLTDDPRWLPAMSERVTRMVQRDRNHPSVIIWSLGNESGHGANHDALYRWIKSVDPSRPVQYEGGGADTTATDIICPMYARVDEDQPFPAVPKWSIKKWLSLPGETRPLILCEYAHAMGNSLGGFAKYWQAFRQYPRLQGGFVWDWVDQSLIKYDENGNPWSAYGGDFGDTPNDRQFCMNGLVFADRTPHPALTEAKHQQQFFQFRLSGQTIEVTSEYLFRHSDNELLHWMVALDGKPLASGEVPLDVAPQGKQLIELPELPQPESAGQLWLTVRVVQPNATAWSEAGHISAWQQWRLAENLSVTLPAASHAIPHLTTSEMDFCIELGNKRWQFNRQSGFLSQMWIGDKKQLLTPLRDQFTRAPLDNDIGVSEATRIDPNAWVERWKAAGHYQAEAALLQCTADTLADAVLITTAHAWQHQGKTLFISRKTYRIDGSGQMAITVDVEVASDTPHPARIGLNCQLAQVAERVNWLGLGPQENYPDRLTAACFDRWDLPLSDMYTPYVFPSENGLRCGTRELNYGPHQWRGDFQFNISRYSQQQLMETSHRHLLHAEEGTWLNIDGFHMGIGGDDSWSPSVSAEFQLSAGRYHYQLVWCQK

[5] = molecular target: T5, Kappa-type opioid receptor (Homo sapiens, UniProt P41145); type: functional
T5 sequence (P41145 whole entry): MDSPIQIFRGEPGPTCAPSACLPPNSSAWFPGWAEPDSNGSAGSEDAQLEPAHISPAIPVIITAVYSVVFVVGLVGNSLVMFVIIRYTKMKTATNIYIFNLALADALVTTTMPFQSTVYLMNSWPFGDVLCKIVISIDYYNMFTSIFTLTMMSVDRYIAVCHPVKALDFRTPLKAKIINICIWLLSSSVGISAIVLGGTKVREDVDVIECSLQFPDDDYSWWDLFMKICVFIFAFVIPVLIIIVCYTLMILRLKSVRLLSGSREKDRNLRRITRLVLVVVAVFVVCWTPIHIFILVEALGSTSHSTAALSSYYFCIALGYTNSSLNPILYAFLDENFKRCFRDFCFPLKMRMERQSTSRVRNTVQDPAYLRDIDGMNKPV

[6] = molecular target: T5, Kappa-type opioid receptor; type: functional; remark: listed apart in the source
[7] = molecular target: T4, Delta-type opioid receptor; assay: HTS Image-Based Screen for Antagonists of the DOR Receptor. [Related pubchem assays (depositor defined):AID1777, AID1785, AID1786, AID2133]; type: functional
[8] = molecular target: G-protein coupled receptor 55 (Homo sapiens, UniProt Q9Y2T6); assay: SAR Analysis of Selective Antagonists of GPR55 using an Image-Based Assay - Set 4. [Related pubchem assays (depositor defined):AID2013, AID2026]; type: functional;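 further: antagonism of response to 5 µM lysophosphatidylinositol agonist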
Chain of G-protein coupled receptor 55 (Q9Y2T6 whole entry): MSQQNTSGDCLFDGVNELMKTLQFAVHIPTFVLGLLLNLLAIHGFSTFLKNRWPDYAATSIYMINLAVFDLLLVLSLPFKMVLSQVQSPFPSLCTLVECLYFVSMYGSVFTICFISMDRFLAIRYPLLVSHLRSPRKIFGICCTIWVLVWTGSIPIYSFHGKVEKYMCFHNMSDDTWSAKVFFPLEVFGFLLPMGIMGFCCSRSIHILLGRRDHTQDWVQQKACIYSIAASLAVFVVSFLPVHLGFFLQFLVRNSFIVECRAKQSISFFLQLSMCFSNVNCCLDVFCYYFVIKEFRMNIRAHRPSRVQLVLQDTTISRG

[9] = molecular target: T6, G-protein coupled receptor 35 (Homo sapiens, UniProt Q9HC97); assay: SAR analysis of Antagonists of the GPR35 Receptor using an Image-Based Assay - Set 6. [Related pubchem assays (depositor defined):AID2013, AID2026]; type: functional
T6 sequence (Q9HC97 whole entry): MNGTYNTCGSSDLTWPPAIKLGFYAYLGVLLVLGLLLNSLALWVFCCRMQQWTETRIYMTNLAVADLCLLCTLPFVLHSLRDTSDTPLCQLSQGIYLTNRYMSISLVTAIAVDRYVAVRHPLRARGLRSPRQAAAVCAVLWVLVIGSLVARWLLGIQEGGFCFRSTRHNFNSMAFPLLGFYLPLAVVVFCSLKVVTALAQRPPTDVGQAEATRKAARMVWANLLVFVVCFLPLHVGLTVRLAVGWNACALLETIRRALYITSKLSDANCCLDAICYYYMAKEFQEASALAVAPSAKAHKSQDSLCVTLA

Cannabinoid receptor 1 [10] = molecular target: T7, Cannabinoid receptor 1 (Homo sapiens, UniProt P21554); assay: SAR analysis of antagonists of the Cannabinoid Receptor 1 using an Image-Based Assay - Set 4. [Related pubchem assays (depositor defined):AID2013, AID2026]; type: functional
T7 sequence (P21554 whole entry): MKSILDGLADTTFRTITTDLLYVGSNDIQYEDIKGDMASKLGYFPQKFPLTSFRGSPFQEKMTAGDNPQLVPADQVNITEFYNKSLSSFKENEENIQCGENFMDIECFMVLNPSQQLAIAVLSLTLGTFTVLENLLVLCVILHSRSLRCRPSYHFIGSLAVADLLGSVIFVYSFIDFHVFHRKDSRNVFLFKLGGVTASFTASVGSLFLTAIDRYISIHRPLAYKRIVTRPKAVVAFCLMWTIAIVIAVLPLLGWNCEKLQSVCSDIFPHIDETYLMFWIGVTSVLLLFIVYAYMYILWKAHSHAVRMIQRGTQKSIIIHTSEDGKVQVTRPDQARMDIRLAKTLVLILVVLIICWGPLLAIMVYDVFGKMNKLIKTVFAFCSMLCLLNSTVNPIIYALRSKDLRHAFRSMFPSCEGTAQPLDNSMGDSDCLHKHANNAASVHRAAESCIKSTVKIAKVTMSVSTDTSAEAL

Cannabinoid receptor 2 [11] = molecular target: T8, Cannabinoid receptor 2 (Homo sapiens, UniProt P34972); assay: SAR analysis of agonists of the Cannabinoid Receptor 2 using an Image-Based Assay - Set 3. [Related pubchem assays (depositor defined):AID2013, AID2026]; type: functional
T8 sequence (P34972 whole entry): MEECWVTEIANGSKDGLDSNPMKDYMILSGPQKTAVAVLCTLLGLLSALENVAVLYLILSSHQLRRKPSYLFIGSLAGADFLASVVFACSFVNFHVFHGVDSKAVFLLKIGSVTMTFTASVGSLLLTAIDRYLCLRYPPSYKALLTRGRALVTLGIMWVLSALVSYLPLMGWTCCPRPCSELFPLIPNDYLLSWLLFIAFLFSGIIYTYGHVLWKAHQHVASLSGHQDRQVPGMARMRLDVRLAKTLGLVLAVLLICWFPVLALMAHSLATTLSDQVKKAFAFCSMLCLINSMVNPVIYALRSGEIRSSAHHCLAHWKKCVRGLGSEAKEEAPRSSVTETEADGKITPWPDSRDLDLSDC

[12] = molecular target: T6, G-protein coupled receptor 35; assay: SAR analysis of Agonists of the GPR35 Receptor using an Image-Based Assay - Set 4. [Related pubchem assays (depositor defined):AID2013, AID2026]; type: functional
Cannabinoid receptor 1 [13] = molecular target: T7, Cannabinoid receptor 1; assay: SAR analysis of agonists of the Cannabinoid Receptor 1 using an Image-Based Assay - Set 4. [Related pubchem assays (depositor defined):AID2013, AID2026]; type: functional
Cannabinoid receptor 2 [14] = molecular target: T8, Cannabinoid receptor 2; assay: SAR analysis of antagonists of the Cannabinoid Receptor 2 using an Image-Based Assay - Set 3. [Related pubchem assays (depositor defined):AID2013, AID2026]; type: functional
CHO-K1 = assay: (§1) Counterscreen for antagonists of the orexin 1 receptor (OX1R; HCRTR1): Homogeneous time resolved fluorescence (HTRF)-based cell-based dose response assay to identify antagonists of the parental CHO-K1 cell line. [Related pubchem assays (depositor defined):AID434989, AID435008, AID463079, AID485270, AID492963, AID492964, AID492965, AID493232, AID504699, AID504701]; type: functional; settings: Cricetulus griseus
[15] = molecular target: T9, Orexin/Hypocretin receptor type 1 (Homo sapiens, UniProt O43613); assay: Homogeneous Time Resolved Fluorescence (HTRF)-based cell-based high throughput dose response assay for antagonists of the orexin 1 receptor (OX1R; HCRTR1). [Related pubchem assays (depositor defined):AID434989, AID435008, AID463079, AID485270, AID492963, AID492964, AID492965, AID493232, AID504717, AID504718]; type: functional
T9 sequence (O43613 whole entry): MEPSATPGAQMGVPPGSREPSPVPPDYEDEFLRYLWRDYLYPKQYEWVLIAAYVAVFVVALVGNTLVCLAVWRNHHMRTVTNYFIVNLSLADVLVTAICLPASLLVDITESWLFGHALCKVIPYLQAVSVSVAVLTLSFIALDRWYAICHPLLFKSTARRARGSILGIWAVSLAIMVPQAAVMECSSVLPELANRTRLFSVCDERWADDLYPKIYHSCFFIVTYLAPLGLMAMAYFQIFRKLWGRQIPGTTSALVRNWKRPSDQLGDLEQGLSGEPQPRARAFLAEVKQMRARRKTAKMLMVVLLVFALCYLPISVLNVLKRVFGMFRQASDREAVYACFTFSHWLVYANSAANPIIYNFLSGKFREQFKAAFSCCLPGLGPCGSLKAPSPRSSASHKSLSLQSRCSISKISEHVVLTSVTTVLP

[16] = as §1, with “Fluorescence-based” for “Homogeneous time resolved fluorescence (HTRF)-based”, “cell-based high throughput” for “cell-based”, “CHO” for “CHO-K1”; type: functional
[17] = molecular target: T9, Orexin/Hypocretin receptor type 1; assay: Fluorescence-based cell-based high throughput dose response assay for antagonists of the orexin 1 receptor (OX1R; HCRTR1). [Related pubchem assays (depositor defined):AID434989, AID435008, AID463079, AID485270, AID492963, AID492964, AID492965, AID493232, AID504717, AID504718]; type: functional

In the case of `CCN(CC)c1ccc(/C=C2\C(=O)c3ccc(C(=O)O)cc3C2=O)cc1`, the IC50 (Protein skinhead-1) is reported as 23.3 µM (active), the IC50 [1] is reported as 85.4 µM (active) and the IC50 [2] is reported as 37.7 µM (active). The EC50 (Troponin, cardiac muscle) was 0.516 µM (active) and the EC50 [3] was 0.1 µM (active).
For `CC(=O)Nc1ccc(NC(=O)C(C)OC(=O)c2ccccc2C(=O)c2ccc(Cl)c([N+](=O)[O-])c2)cc1` (configuration not stated), the EC50 [4] was > 32 µM (inactive), the EC50 (Mu-type opioid receptor) was > 32 µM (inactive) and the EC50 (Beta-galactosidase) was > 31.5 µM (inactive). For the same compound, the IC50 [5] was 8.15 µM (active), the IC50 [6] was 8.71 µM and the IC50 [7] was > 32 µM (inactive).
For `Cc1nc(N2CCN(C(=O)c3ccccc3)CC2)c2c3c(sc2n1)CC(C)CC3` (configuration not stated), the IC50 [8] was 21.5 µM (inactive), the IC50 [9] was > 32 µM (inactive) and the IC50 (Cannabinoid receptor 1 [10]) was 1.68 µM (active). For the same compound, the EC50 (Cannabinoid receptor 2 [11]) was 24.1 µM (inactive), the EC50 [12] was > 32 µM (inactive) and the EC50 (Cannabinoid receptor 1 [13]) was > 32 µM (inactive). The IC50 (Cannabinoid receptor 2 [14]) was > 9.18 µM (active).
For `Oc1cc(/C=C/c2c(F)cccc2Cl)nc2ccccc12`, the IC50 (CHO-K1) was > 66.2 µM (inactive), the IC50 [15] was 3.14 µM (active) and the IC50 [16] was > 49.7 µM (inactive). The IC50 [17] was 9.6 µM (active).
